Source: patent US20250320224A1 (DOMAIN THERAPEUTICS, priority 2022, published 2025)
Structures can show the parent of a compound that is named as a salt.

The compounds below were run against T1, human PAR-2 (hPAR-2) receptor (Homo sapiens, UniProt P55085) (assay: In vitro human PAR-2 functional antagonist activity using calcium assays). Settings: hPAR-2 endogenously expressed in HEK-293 cells; stimulated by 2-Furoyl-LIGRLO-NH2 peptide; Fluo4AM intracellular calcium, FLIPR Tetra.
T1 construct: expressed in HEK-293 cells in an endogenous manner; endogenous in cells; host or cells: HEK-293
T1 sequence (P55085 26-397): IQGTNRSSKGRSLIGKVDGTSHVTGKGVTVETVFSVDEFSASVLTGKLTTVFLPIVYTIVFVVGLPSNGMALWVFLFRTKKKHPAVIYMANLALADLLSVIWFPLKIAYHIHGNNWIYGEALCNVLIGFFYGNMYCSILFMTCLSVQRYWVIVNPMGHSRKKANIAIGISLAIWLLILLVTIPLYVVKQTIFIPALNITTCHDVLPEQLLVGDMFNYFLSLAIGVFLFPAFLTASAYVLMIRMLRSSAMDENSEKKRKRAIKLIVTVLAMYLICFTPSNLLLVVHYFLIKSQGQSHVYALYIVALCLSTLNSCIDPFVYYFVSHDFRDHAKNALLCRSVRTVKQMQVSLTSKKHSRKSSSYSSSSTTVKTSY
Format: cell-based
Procedure, shortened: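 HEK-293 cells with endogenous hPAR-2 were loaded with Fluo4AM and read for intracellular Ca2+ on FLIPR. After 10 min with compound alone, cells were stimulated with 2-Furoyl-LIGRLO-NH2 at the concentration giving 80% of maximal response. Inhibition was then recorded over 5 min relative to buffer and agonist-only signals.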
For `CCOC(=O)CCCC(=O)N1CCN(C(=O)c2ccc3c(n2)C(C)(C)CN3c2ccc(Cl)c(F)c2)C(C)(C)C1` [Example 27, ethyl 5-(4-(1-(4-chloro-3-fluorophenyl)-3,3-dimethyl-2,3-dihydro-1H-pyrrolo[3,2-b]pyridine-5-carbonyl)-3,3-dimethylpiperazin-1-yl)-5-oxopentanoate], the IC50 was < 500 nM. For `CC(C)CN1CC(C)(Cc2ccc(Cl)c(F)c2)c2ccc(C(=O)N3CCN(c4ccc(CC(=O)O)cn4)CC3(C)C)nc21` (stereo not shown) [Example 197, 2-(6-(4-(3-(4-chloro-3-fluorobenzyl)-1-isobutyl-3-methyl-2,3-dihydro-1H-pyrrolo[2,3-b]pyridine-6-carbonyl)-3,3-dimethylpiperazin-1-yl)pyridin-3-yl)acetic acid], the IC50 was > 10000 nM. In the case of `CC1(C)CN(c2ccc(Cl)c(F)c2)c2ccc(C(=O)N3CCN(c4nc(C(=O)O)cs4)CC3(C)C)nc21` [Example 43, 2-(4-(1-(4-chloro-3-fluorophenyl)-3,3-dimethyl-2,3-dihydro-1H-pyrrolo[3,2-b]pyridine-5-carbonyl)-3,3-dimethylpiperazin-1-yl)thiazole-4-carboxylic acid], the IC50 is reported as < 500 nM. Work on `CC1(C)CN(c2ccc(Cl)c(F)c2)c2ccc(C(=O)N3CCC(N4CCNC4=O)CC3)nc21` [Example 77, 1-(1-(1-(4-chloro-3-fluorophenyl)-3,3-dimethyl-2,3-dihydro-1H-pyrrolo[3,2-b]pyridine-5-carbonyl)piperidin-4-yl)imidazolidin-2-one] yielded an IC50 of 500 to 10000 nM. For `Cc1cc(N2CCN(C(=O)c3cnc4c(n3)C3(CN4c4cc(F)c(F)c(F)c4)CC(C)(C)C3)C(C)(C)C2)nc(C)c1C(=O)O` [Example 235, 6-(4-(3,3-dimethyl-5′-(3,4,5-trifluorophenyl)-5′,6′-dihydrospiro[cyclobutane-1,7′-pyrrolo[2,3-b]pyrazine]-2′-carbonyl)-3,3-dimethylpiperazin-1-yl)-2,4-dimethylnicotinic acid], the IC50 was < 500 nM. `CC1(C)CN(c2ccc(Cl)c(F)c2)c2ccc(C(=O)N3CCN(C(=O)CCCC(=O)O)CC3(C)C)nc21` [Example 28, 5-(4-(1-(4-chloro-3-fluorophenyl)-3,3-dimethyl-2,3-dihydro-1H-pyrrolo[3,2-b]pyridine-5-carbonyl)-3,3-dimethylpiperazin-1-yl)-5-oxopentanoic acid] gave an IC50 of 500 to 10000 nM. In the case of `CC1(C)CN(c2ccc(Cl)c(F)c2)c2ccc(C(=O)N3CC[C@H](c4ccccn4)[C@H](C(=O)O)C3)nc21` (relative stereo) [Example 137, (cis)-1-(1-(4-chloro-3-fluorophenyl)-3,3-dimethyl-2,3-dihydro-1H-pyrrolo[3,2-b]pyridine-5-carbonyl)-4-(pyridin-2-yl)piperidine-3-carboxylic acid], the IC50 is reported as 500 to 10000 nM. `COCC1CC2(C1)CN(c1ccc(Cl)c(F)c1)c1ccc(C(=O)N3CCN(c4ccc(CC(=O)O)cn4)CC3(C)C)nc12` (stereo not shown) [Example 239, 2-(6-(4-(1′-(4-chloro-3-fluorophenyl)-3-(methoxymethyl)-1′,2′-dihydrospiro[cyclobutane-1,3′-pyrrolo[3,2-b]pyridine]-5′-carbonyl)-3,3-dimethylpiperazin-1-yl)pyridin-3-yl)acetic acid] was tested, and the IC50 was < 500 nM. `CCN1CCN(C(=O)c2ccc3c(n2)C(C)(C)CN3c2ccc(Cl)c(F)c2)C(C)(C)C1=O` [Example 19, 4-(1-(4-chloro-3-fluorophenyl)-3,3-dimethyl-2,3-dihydro-1H-pyrrolo[3,2-b]pyridine-5-carbonyl)-1-ethyl-3,3-dimethylpiperazin-2-one] was tested, and the IC50 was < 500 nM. With `CO[C@@H]1CN(C(=O)c2ccc3c(n2)C(C)(C)CN3c2ccc(Cl)c(F)c2)CC[C@H]1CC(=O)O` [Example 92, 2-((3S,4S)-1-(1-(4-chloro-3-fluorophenyl)-3,3-dimethyl-2,3-dihydro-1H-pyrrolo[3,2-b]pyridine-5-carbonyl)-3-methoxypiperidin-4-yl)acetic acid] the IC50 was 500 to 10000 nM. `CC1(C)CN(c2ccc(CC(=O)O)cn2)CCN1C(=O)c1cc2n(n1)C(C)(C)CN(c1ccc(Cl)c(F)c1)C2` [Example 195, 2-(6-(4-(5-(4-chloro-3-fluorophenyl)-7,7-dimethyl-4,5,6,7-tetrahydropyrazolo[1,5-a]pyrazine-2-carbonyl)-3,3-dimethylpiperazin-1-yl)pyridin-3-yl)acetic acid] was tested, and the IC50 was 500 to 10000 nM. Compound `Cc1cc(N(C)CCN(C)C(=O)c2ccc3c(n2)C(C)(C)CN3c2ccc(Cl)c(F)c2)nc(C)c1C(=O)O` [Example 50, 6-((2-(1-(4-chloro-3-fluorophenyl)-N,3,3-trimethyl-2,3-dihydro-1H-pyrrolo[3,2-b]pyridine-5-carboxamido)ethyl)(methyl)amino)-2,4-dimethylnicotinic acid] has an IC50 of 500 to 10000 nM. Work on `CC1(C)CN(c2ccc(Cl)c(F)c2)c2ccc(C(=O)N3CCC(CC(=O)O)CC3)nc21` [Example 35, 2-(1-(1-(4-chloro-3-fluorophenyl)-3,3-dimethyl-2,3-dihydro-1H-pyrrolo[3,2-b]pyridine-5-carbonyl)piperidin-4-yl)acetic acid] yielded an IC50 of 500 to 10000 nM. For `Cc1cc(N2CCN(C(=O)c3cnc4c(n3)C3(CCC3)CN4c3ccc(Cl)c(F)c3)C(C)(C)C2)nc(C)c1C(=O)O` [Example 237, 6-(4-(5′-(4-chloro-3-fluorophenyl)-5′,6′-dihydrospiro[cyclobutane-1,7′-pyrrolo[2,3-b]pyrazine]-2′-carbonyl)-3,3-dimethylpiperazin-1-yl)-2,4-dimethylnicotinic acid], the IC50 was < 500 nM. In the case of `CC1(C)C(=O)NCCN1C(=O)c1ccc2c(n1)[C@@]1(C)CCO[C@H]1N2c1ccc(Cl)c(F)c1` (single isomer, unassigned) [Example 62], the IC50 is reported as < 500 nM. In the case of `CC1(C)CN(c2ccc(Cl)c(F)c2)c2ccc(C(=O)N3CCN(c4ccc(CC(=O)O)cn4)CC3(C)C)nc2O1` [Example 265, 2-(6-(4-(1-(4-chloro-3-fluorophenyl)-3,3-dimethyl-2,3-dihydro-1H-pyrido[2,3-b][1,4]oxazine-6-carbonyl)-3,3-dimethylpiperazin-1-yl)pyridin-3-yl)acetic acid], the IC50 is reported as > 10000 nM. `CC1(C)CN(c2ccc(CC(=O)O)cn2)CCN1C(=O)c1cnc2c(n1)C1(CCC1)CN2c1ccc(Cl)c(F)c1` [Example 231, 2-(6-(4-(5′-(4-chloro-3-fluorophenyl)-5′,6′-dihydrospiro[cyclobutane-1,7′-pyrrolo[2,3-b]pyrazine]-2′-carbonyl)-3,3-dimethylpiperazin-1-yl)pyridin-3-yl)acetic acid] was tested, and the IC50 was < 500 nM. Compound `CC1(C)CN(C2CCC(C#N)CC2)c2ccc(C(=O)N3CCN(c4ccc(CC(=O)O)cn4)CC3(C)C)nc21` (stereo not shown) [Example 169, 2-(6-(4-(1-(4-cyanocyclohexyl)-3,3-dimethyl-2,3-dihydro-1H-pyrrolo[3,2-b]pyridine-5-carbonyl)-3,3-dimethylpiperazin-1-yl)pyridin-3-yl)acetic acid] has an IC50 of 500 to 10000 nM. For `Cc1sc(N2CCN(C(=O)c3ccc4c(n3)C(C)(C)CN4c3ccc(Cl)c(F)c3)C(C)(C)C2)nc1C(=O)O` [Example 73, 2-(4-(1-(4-chloro-3-fluorophenyl)-3,3-dimethyl-2,3-dihydro-1H-pyrrolo[3,2-b]pyridine-5-carbonyl)-3,3-dimethylpiperazin-1-yl)-5-methylthiazole-4-carboxylic acid hydrochloride], the IC50 was < 500 nM. In the case of `Cc1cc(N2CCN(C(=O)c3ccc4c(n3)C(C)(C)CN4c3ccc(C4CC4)cc3)C(C)(C)C2)nc(C)c1C(=O)O` [Example 279, 6-(4-(1-(4-cyclopropylphenyl)-3,3-dimethyl-2,3-dihydro-1H-pyrrolo[3,2-b]pyridine-5-carbonyl)-3,3-dimethylpiperazin-1-yl)-2,4-dimethylnicotinic acid], the IC50 is reported as < 500 nM. `CC1(C)CN(c2ccc(Cl)c(F)c2)c2ccc(C(=O)N3CCN(c4nc(C(N)=O)cs4)CC3(C)C)nc21` [Example 83, 2-(4-(1-(4-chloro-3-fluorophenyl)-3,3-dimethyl-2,3-dihydro-1H-pyrrolo[3,2-b]pyridine-5-carbonyl)-3,3-dimethylpiperazin-1-yl)thiazole-4-carboxamide] was tested, and the IC50 was < 500 nM. In the case of `COC(=O)c1c(C)cc(N2CCN(C(=O)c3ccc4c(n3)C(C)(C)CN4c3ccccn3)C(C)(C)C2)nc1C` [Example 135, methyl 6-(4-(3,3-dimethyl-1-(pyridin-2-yl)-2,3-dihydro-1H-pyrrolo[3,2-b]pyridine-5-carbonyl)-3,3-dimethylpiperazin-1-yl)-2,4-dimethylnicotinate], the IC50 is reported as 500 to 10000 nM. In the case of `CCC1(C)CN(c2ccc(Cl)c(F)c2)c2ccc(C(=O)NC3(C(N)=O)CC3)nc21` (stereo not shown) [Example 54, N-(1-carbamoylcyclopropyl)-1-(4-chloro-3-fluorophenyl)-3-ethyl-3-methyl-2,3-dihydro-1H-pyrrolo[3,2-b]pyridine-5-carboxamide], the IC50 is reported as 500 to 10000 nM. With `COC1c2nc(C(=O)N3CCN(c4ccc(CC(=O)O)cn4)CC3(C)C)ccc2N(c2ccc(Cl)c(F)c2)CC1(C)C` (stereo not shown) [Example 253, 2-(6-(4-(5-(4-chloro-3-fluorophenyl)-8-methoxy-7,7-dimethyl-5,6,7,8-tetrahydro-1,5-naphthyridine-2-carbonyl)-3,3-dimethylpiperazin-1-yl)pyridin-3-yl)acetic acid] the IC50 was 500 to 10000 nM. Compound `CN1CNC(=O)C12CCN(C(=O)c1ccc3c(n1)C(C)(C)CN3c1ccc(Cl)c(F)c1)CC2` [Example 29, 8-(1-(4-chloro-3-fluorophenyl)-3,3-dimethyl-2,3-dihydro-1H-pyrrolo[3,2-b]pyridine-5-carbonyl)-1-methyl-1,3,8-triazaspiro[4.5]decan-4-one] has an IC50 of 500 to 10000 nM.
